Peptide text beside a SMILES is read from it. * marks the point of attachment. Cbz = O=C(OCc1ccccc1)*
Key:
PL-PPARγ1 = test: Proteosomal degradation of transiently expressed PL-PPAR (ED-EA complementation); format: cell-based, human; conditions: for Amount of PL-PPARγ1: MG132 20 μM
Excerpt: pcDNA3.1-PL-PPAR construct was obtained in the two rounds of the cloning procedure. In the first round, the ED (55-mer) sequence was inserted into NheI and KpnI sites of the pcDNA3.1/zeo vector (Invitrogen). PPARg1 gene was obtained by PCR amplification of the human placenta cDNA library and in the second round of cloning was inserted into KpnI and NotI sites of the vector.
Proteosomal degradation of transiently expressed PL-PPAR protein was detected in NIH3T3, ECV304 and HeLa cells. Cells were transfected with pcDNA3.1-PL-PPAR and 24 hours after transfection medium was removed and cells were treated either with the vehicle (DMSO) or MG132 (proteosome inhibitor). Transfections were carried out in 6-well plates as described above. Cells were washed with PBS buffer, lysed in 480 uL of lysis buffer containing CHAPS (a mild detergent) and tested for ED-EA complementation in triplicates. Thirty microliters of the cell lysates were placed in the wells of 384-well plates. After that, 10 uL of EA solution were added and reaction of complementation was carried out for one hour at room temperature. Fifteen microliters of chemiluminescent substrate (0.4 mM Galacton-Star (Applied Biosystems, Bedford, Mass.) and 2 mg/ml Emerald II substrate (Applied Biosystems, Bedford, Mass.)) were added to the wells and the chemiluminescent signals were read using Chemiluminescent reader (Packard LumiCount, Packard Biosystems) (FIGS. 10A, 10B and 10C).
PL-PPAR expression levels were tested in the presence of increasing concentrations of MG132 (FIG. 11). The experiment was done as described above, except that indicated concentrations of MG132 were employed.

[1] = system: Hela cells stably expressing IkB-PL; test: Cell Titer-Glo cell viability assay of Hela-IkB cells with EGF; format: cell-based; conditions: 0.5% FBS, serial dosage of rhEGF, 72 hours, FIG. 17
Protocol: Hela cells stably expressing IkB-PL were used. To confirm the cells response to EGF, the cell viability assay was performed. Hela-IkB cells were seeded in DMEM with 0.5% FBS in 96 well plate with a density of 5000 cells per well, exposing to a serial dosage of rhEGF. 72 hours later, cell viability assay was performed using the Cell Titer-Glo luminescence Cell Viability assay kit (Promega). […] (FIG. 17).

endogenous IL-1 receptor = target: T1, endogenous IL-1 receptor (Homo sapiens, UniProt P14778); test: IL-1-induced IκB-ED degradation in HeLa cells; format: cell-based; conditions: IL-1 at various concentrations for 30 min
T1 construct: endogenous in cells; host or cells: HeLa cells transiently transfected with pCMV-IkB-ED or pCMV-IkB M-ED as reporter
T1 sequence (P14778 18-569): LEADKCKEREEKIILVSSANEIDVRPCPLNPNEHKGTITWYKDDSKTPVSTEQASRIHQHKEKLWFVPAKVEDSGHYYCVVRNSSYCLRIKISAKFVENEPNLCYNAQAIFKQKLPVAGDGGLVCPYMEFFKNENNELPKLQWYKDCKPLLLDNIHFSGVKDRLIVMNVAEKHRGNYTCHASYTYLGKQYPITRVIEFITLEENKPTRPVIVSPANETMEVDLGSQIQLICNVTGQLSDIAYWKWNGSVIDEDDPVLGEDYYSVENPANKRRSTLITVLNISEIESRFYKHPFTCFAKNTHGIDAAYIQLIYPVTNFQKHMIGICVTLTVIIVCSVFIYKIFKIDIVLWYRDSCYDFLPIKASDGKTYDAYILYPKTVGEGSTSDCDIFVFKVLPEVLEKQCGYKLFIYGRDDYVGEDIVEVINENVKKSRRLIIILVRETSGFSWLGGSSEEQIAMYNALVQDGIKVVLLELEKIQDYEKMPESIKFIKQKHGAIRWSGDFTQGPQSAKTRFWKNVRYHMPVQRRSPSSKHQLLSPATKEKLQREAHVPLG
T1 sequence (Q9NPH3 21-570 partner): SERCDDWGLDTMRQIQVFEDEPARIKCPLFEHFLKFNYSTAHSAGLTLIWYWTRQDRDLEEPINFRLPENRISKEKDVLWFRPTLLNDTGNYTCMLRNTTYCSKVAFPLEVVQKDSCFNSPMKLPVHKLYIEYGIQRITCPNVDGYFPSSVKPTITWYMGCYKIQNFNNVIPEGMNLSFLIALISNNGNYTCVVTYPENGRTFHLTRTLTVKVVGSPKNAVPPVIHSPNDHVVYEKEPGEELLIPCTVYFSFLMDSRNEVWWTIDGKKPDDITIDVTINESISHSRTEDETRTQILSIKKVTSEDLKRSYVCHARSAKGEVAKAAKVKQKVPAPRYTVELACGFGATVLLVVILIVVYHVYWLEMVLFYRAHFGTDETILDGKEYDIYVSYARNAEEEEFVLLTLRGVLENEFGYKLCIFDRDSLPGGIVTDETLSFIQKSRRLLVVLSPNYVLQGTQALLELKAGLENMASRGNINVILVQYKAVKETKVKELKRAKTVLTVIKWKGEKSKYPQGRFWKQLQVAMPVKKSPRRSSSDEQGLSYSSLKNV
Protocol: (§1) HeLa cells were seeded into 24 well plate 24 hr before transfection. 0.25 μg DNA was transfected into each well using Fugene6 (Roche) following manufacture's protocol. 24 hr after transfection, cells were subjected to treatment of TNFα (Sigma) at various concentrations for 30 min. Then the culture medium was removed, and cells were lysed in 90 μl of cell lysis buffer. […] Assay was performed in three replicates. The plate was incubated at room temperature for 30 min before addition of 15 μl chemiluminescence substrate. Plate was read 30 min after substrate addition. The untreated cells were normalized to 100% activity. […] In addition, the IκB-ED degradation was specifically linked to the upstream component activation. Also confirmed was that the IκB-ED degradation was dependent on IκB phosporylation at 32 and 36 residues, the same way as un-tagged IκB.
It has been reported that IL-1 activation of cells results in NF-κB pathway activation through the induced degradation of IκB. To confirm that the ED labeled IκB in cells was able to monitor IL-1 pathway activation, HeLa cells was transiently transfected with pCMV- IκB -ED or pCMV- IκB M-ED the same way as described above in 24 well plates. Cells were then treated with IL-1 (Sigma) at various concentrations for 30 min then assayed for ED activity.

IκB-ED = test: TNFα-induced IκB-ED degradation in HeLa cells (ED/EA complementation, chemiluminescence); format: cell-based; conditions: TNFα at various concentrations for 30 min
Protocol: For transient transfection, cells were seeded into 6 well plate one day before experiment. For each well, 3 μl of Fugene 6 (Roche, Ind.) was diluted into 100_μl of serum free medium, and then 1_μg of plasmid DNA was added. The mixture was incubated at room temperature for 15 min before addition into wells dropwise. The plate was then incubated at 37° C. till the assay.
as §1

[2] = target: T2, human chemokine CCR3 receptor (Homo sapiens, UniProt P51677); test: CCR3 activation leads to IkB-PL degradation in CHO-K1 cells; format: cell-based; conditions: CHO-K1 cells expressing CCR3, transfected with PCMV-IkB-PL; 30 min; FIG. 16
T2 sequence (P51677 1-355): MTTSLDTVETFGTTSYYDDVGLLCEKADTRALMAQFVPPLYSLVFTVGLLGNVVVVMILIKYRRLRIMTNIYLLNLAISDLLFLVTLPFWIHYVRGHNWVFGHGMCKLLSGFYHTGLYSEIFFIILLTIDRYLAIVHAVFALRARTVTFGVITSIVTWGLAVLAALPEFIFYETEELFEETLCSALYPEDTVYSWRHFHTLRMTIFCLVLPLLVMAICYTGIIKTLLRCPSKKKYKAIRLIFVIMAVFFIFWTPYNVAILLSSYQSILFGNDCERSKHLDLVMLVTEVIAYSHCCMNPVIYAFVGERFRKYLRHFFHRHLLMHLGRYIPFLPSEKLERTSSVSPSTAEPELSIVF
Protocol: CHO-K1 cells stably expressing human chemokine CCR3 receptor was obtained from Euroscreen. […] Cells were seeded in 6-well plates one day before transfection. PCMV-IkB-PL was transiently transfected into CHO MC4 cells using Fugene6 following manufacturer's protocol. […] (FIG. 16).

[3] = HeLa cells transfected with pCMV-IκB M-ED
[4] = HeLa cells transfected with pCMV-IκB-ED

CC(C)C[C@@H](C=O)NC(=O)[C@H](CC(C)C)NC(=O)[C@H](CC(C)C)NC(=O)OCc1ccccc1 [MG132] (Cbz-Leu-Leu-Leu-aldehyde)
Amount of PL-PPARγ1 (PL-PPARγ1; ECV304 cells, FIG. 10B): enhancement of the amount of PL-PPARγ1 | Amount of PL-PPARγ1 (PL-PPARγ1; HeLa cells, FIG. 10C): enhancement of the amount of PL-PPARγ1 | Amount of PL-PPARγ1 (PL-PPARγ1; NIH3T3 cells, FIG. 10A): enhancement of the amount of PL-PPARγ1 | PL-PPAR expression level with increasing concentrations of MG132 (PL-PPARγ1; increasing concentrations of MG132, FIG. 11): Dose-Dependent Increase

EGF (NSDSECPLSHDGYCLHDGVCMYIEALDKYACNCVVGYIGERCQYRDLKWWELR)
Viable cell numbers [1]: responded to the EGF induction in a dosage dependent manner

IL-1
Degradation of mutant IκB M-ED (endogenous IL-1 receptor; [3]): resistant to IL-1 induced degradation | IκB-ED activity (endogenous IL-1 receptor; [4]): decreased upon IL-1 treatment in a dose dependent manner

TNFα
ED activity of mutant IκB M-ED (IκB-ED; [3]): did not show a dose dependent decrease of ED activity | ED activity of IκB-ED (degradation of wild type IκB) (IκB-ED; [4]): decrease the ED activity in a dose dependent manner

eotaxin
IkB-PL degradation upon CCR3 activation [2]: activation of the chemokine receptor CCR3 leading to IkB-PL degradation
